Experimental data as given in paper PMC7708037, “Targeting OGG1 arrests cancer cell proliferation by inducing replication stress” (Nucleic Acids Research, 2020).

Tests used:
A3 cells = assay: Annexin V-staining (apoptosis); assay type: cell-based, human; conditions: 72 h
Method: The annexin V staining experiment was performed using BD Pharmingen FITC Annexin V Apoptosis Detection Kit I (cat.no 556547) according to the protocol given in the kit. Cells were washed with ice-cold PBS and then washed with 1X Annexin buffer diluted in ice-cold PBS. To the washed pellet of cells, PI and FITC Annexin V dye was added and incubated at room temperature in dark for 15 mins. After the incubation, 400 µl of annexin buffer was added and run in Navios flow cytometer (Beckman Coulter) to detect the apoptosis with blue laser(488 nm, filter 525/40 nm) and dead cells with blue laser(488 nm, filter 620/30 nm). Kaluza Flow Analysis (Beckman Coulter) was used for data analysis.
Figure 4. Anticancer properties overlap between OGG1 loss and OGG1 inhibitors. (A) Viability of T-cell acute […] leukemia cell lines treated for 5 days with the indicated doses TH5487. Data are average ±SD of independent experiments (A3, n = 5; Jurkat, n = 3; MOLT-4, n = 4; CCRF-CEM, n = 3). (B) Relative cell numbers and (C) viability (%) for A3 cells treated for 5 days with 10 μM TH5487. Data are average ±SD of six replicates from three independent experiments. […] Statistical significance was determined using unpaired, two-sided t-tests (*P < 0.05, **P < 0.01, ***P < 0.001, ****P < 0.0001, ns, non-significant).

[1] = tested on: replication fork rate in A3 cells; assay: DNA fibre assay; assay type: cell-based, human; conditions: 10 μM, 48 and 72 h
Method: A3 Cells were exposed to either 0.1% DMSO or 10 μM TH5487 for the indicated times, pulse-labeled with 25 μM 5-chloro-2′-deoxyuridine (CldU) for 30 min, washed with medium and pulse-labeled with 250 μM 5-iodo-2′-deoxyuridine (IdU) for 30 min. Alternatively, control or OGG1 shRNA expression was induced with 1 μg/ml doxycyline for 48 h or 96 h before pulse labelling. CldU was detected by incubating acid-treated fiber spreads in Ibidi μ-Slide VI 0.4 (Ibidi, 80606) with rat anti-BrdU monoclonal antibody (AbD Serotec; cat# MCA2060), whereas IdU was detected using mouse anti-BrdU monoclonal antibody (BD Biosciences; cat# 347580) for 1 h at 37°C. […] The lengths of red (AF 555) or green (AF 488) labeled patches were measured using the ImageJ software (National Institutes of Health; http://rsbweb.nih.gov/ij/) and arbitrary length values were converted into micrometers.
Figure 5. […] A3 cells were treated with 20 mM KBrO3 for 1 h or with 10 μM TH5487 for the indicated times, and the amount of genomic 8-oxodG was quantified with LC-MS/MS. […] A3 cells were treated with 10 μM TH5487 for 72 h and strand-breaks and OGG1 substrate lesions were analyzed with the OGG1-modified Comet assay. […] Cells were treated as in B, and the tail moment of the cells were analyzed using blinded automatic analysis (n = 200 per condition from two independent experiments). […] At least 300 forks were scored per condition. […]

Structure (SMILES): O=C(Nc1ccc(I)cc1)N1CCC(n2c(=O)[nH]c3c(Br)cccc32)CC1 [TH5487]
- Apoptosis (Annexin V-propidium iodide) (A3 cells; 20 μM): more substantial
- Apoptosis (Annexin V-propidium iodide) (A3 cells; 5 and 10 μM): slight but significant increase in apoptosis
- Replication fork rate [1]: marked reduction
